According to ChEMBL document CHEMBL1136455, “The synthesis and antibacterial activity of 1,3,4-thiadiazole phenyl oxazolidinone analogues” (Bioorg Med Chem Lett, 2003):
≈ marks a conversion by molar mass, not a printed value.

Experiments:
Enterococcus faecalis = experiment: In vitro antibacterial activity against vancomycin resistant Enterococcus faecalis UC 9217 (VREA); assay type: functional
Haemophilus influenzae = experiment: In vitro antibacterial activity against ampicillin resistant Haemophilus influenzae 30063 (B-lactamase +); assay type: functional
Moraxella catarrhalis = experiment: In vitro antibacterial activity against Moraxella catarrhalis 30607; assay type: functional
Mus musculus [1] = experiment: In vivo efficacy to protect the Staphylococcus aureus infected mouse and the activity was reported using Linezolid as a control with ED50 = 3.5; assay type: functional
Staphylococcus aureus [2] = experiment: In vitro antibacterial activity against methicillin resistant Staphylococcus aureus UC 12673 (MRSA); assay type: functional
[3] = system: Staphylococcus epidermidis; experiment: In vitro antibacterial activity against methicillin resistant Staphylococcus epidermidis UC 12084; assay type: functional
Streptococcus pneumoniae = experiment: In vitro antibacterial activity against penicillin sensitive Streptococcus pneumoniae UC 9912; assay type: functional
Staphylococcus aureus [4] = experiment: In vitro antibacterial activity against methicillin susceptible Staphylococcus aureus UC 9213 (MSSA); assay type: functional
Mus musculus [5] = experiment: In vivo efficacy to protect the Staphylococcus aureus infected mouse and the activity was reported using Linezolid as a control with ED50 =11.5; assay type: functional
[6] = Clearance in rat; assay type: ADME, organism-based; settings: in vivo
[7] = Bioavailability in rat; assay type: ADME, organism-based; settings: in vivo
Mus musculus [8] = experiment: In vivo efficacy to protect the Staphylococcus aureus infected mouse and the activity was reported using Linezolid as a control with ED50 = 8; assay type: functional
Mus musculus [9] = experiment: In vivo efficacy to protect the Staphylococcus aureus infected mouse and the activity was reported using Linezolid as a control with ED50 = 1.8; assay type: functional
Mus musculus [10] = experiment: In vivo efficacy to protect the Staphylococcus aureus infected mouse and the activity was reported using Linezolid as a control with ED50 = 2.9; assay type: functional
Mus musculus [11] = experiment: In vivo efficacy to protect the Staphylococcus aureus infected mouse and the activity was reported using Linezolid as a control with ED50 = 2.2
Mus musculus [12] = experiment: In vivo efficacy to protect the Staphylococcus aureus infected mouse and the activity was reported using Linezolid as a control with ED50 = 3.8; assay type: functional
Mus musculus [13] = experiment: In vivo efficacy to protect the Staphylococcus aureus infected mouse and the activity was reported using Linezolid as a control with ED50 =[…]; assay type: functional
[14] = system: Staphylococcus epidermidis; experiment: In vitro antibacterial activity against methicillin resistant Staphylococcus epidermidis UC 12084; range is 1-2; assay type: functional

What does the source list for `CC(=O)NC[C@H]1CN(c2ccc(-c3nnc(C)s3)c(F)c2)C(=O)O1`?
MIC (Enterococcus faecalis): 0.5 µg/mL (≈ 1.43 µM); MIC (Haemophilus influenzae): 2 µg/mL (≈ 5.71 µM); MIC (Moraxella catarrhalis): 2 µg/mL (≈ 5.71 µM); ED50 (Mus musculus [1]): 6.2 mg/kg; MIC (Staphylococcus aureus [2]): 0.5 µg/mL (≈ 1.43 µM); MIC [3]: < 0.125 µg/mL; MIC (Streptococcus pneumoniae): < 0.125 µg/mL; MIC (Staphylococcus aureus [4]): 1 µg/mL (≈ 2.85 µM)

With `CC(=O)NC[C@H]1CN(c2ccc(-c3nnc(CC(N)=O)s3)c(F)c2)C(=O)O1` as the compound, how does the MIC (Enterococcus faecalis) read?
The MIC was 2 µg/mL (≈ 5.08 µM).

And the MIC (Haemophilus influenzae)?
The MIC was 4 µg/mL (≈ 10.2 µM).

And the MIC (Moraxella catarrhalis)?
Its MIC is 8 µg/mL (≈ 20.3 µM).

And the ED50 (Mus musculus [1])?
Its ED50 is greater than 20 mg/kg.

What about the MIC (Staphylococcus aureus [2]) of the same compound?
Its MIC is 4 µg/mL (≈ 10.2 µM).

And the MIC [3]?
Its MIC is 0.5 µg/mL (≈ 1.27 µM).

And the MIC (Streptococcus pneumoniae)?
The MIC was less than 0.125 µg/mL.

And the MIC (Staphylococcus aureus [4])?
Its MIC is 4 µg/mL (≈ 10.2 µM).

What does the source list for `CC(=O)NC[C@H]1CN(c2ccc(-c3nnc(CN)s3)c(F)c2)C(=O)O1`?
MIC (Enterococcus faecalis): 1 µg/mL (≈ 2.74 µM); MIC (Haemophilus influenzae): 2 µg/mL (≈ 5.47 µM); MIC (Moraxella catarrhalis): 2 µg/mL (≈ 5.47 µM); ED50 (Mus musculus [5]): 21.3 mg/kg; MIC (Staphylococcus aureus [2]): 4 µg/mL (≈ 10.9 µM); MIC [3]: 1 µg/mL (≈ 2.74 µM); MIC (Streptococcus pneumoniae): < 0.125 µg/mL; MIC (Staphylococcus aureus [4]): 8 µg/mL (≈ 21.9 µM)

With `CNCc1nnc(-c2ccc(N3C[C@H](CNC(C)=O)OC3=O)cc2F)s1` as the compound, how does the MIC (Enterococcus faecalis) read?
Its MIC is 2 µg/mL (≈ 5.27 µM).

What about the MIC (Haemophilus influenzae) of the same compound?
The MIC was 4 µg/mL (≈ 10.5 µM).

What about the MIC (Moraxella catarrhalis) of the same compound?
Its MIC is 4 µg/mL (≈ 10.5 µM).

And the MIC (Staphylococcus aureus [2])?
Its MIC is 4 µg/mL (≈ 10.5 µM).

What about the MIC [3] of the same compound?
Its MIC is 1 µg/mL (≈ 2.64 µM).

What about the MIC (Streptococcus pneumoniae) of the same compound?
Its MIC is less than 0.5 µg/mL.

And the MIC (Staphylococcus aureus [4])?
Its MIC is 4 µg/mL (≈ 10.5 µM).

Which results are given for `C/C(S)=N/C[C@H]1CN(c2ccc(-c3nnc(CN)s3)c(F)c2)C(=O)O1`?
clearance [6]: 34.3 mL/min/kg; bioavailability [7]: 14%; MIC (Enterococcus faecalis): < 0.5 µg/mL; MIC (Haemophilus influenzae): < 0.5 µg/mL; MIC (Moraxella catarrhalis): < 0.5 µg/mL; ED50 (Mus musculus [8]): > 20 mg/kg; MIC [3]: < 0.5 µg/mL; MIC (Streptococcus pneumoniae): < 0.5 µg/mL; MIC (Staphylococcus aureus [4]): < 0.5 µg/mL

Which results are given for `CC(=O)NC[C@H]1CN(c2ccc(-c3nncs3)c(F)c2)C(=O)O1`?
MIC (Enterococcus faecalis): 1 µg/mL (≈ 2.97 µM); MIC (Haemophilus influenzae): 4 µg/mL (≈ 11.9 µM); MIC (Moraxella catarrhalis): 4 µg/mL (≈ 11.9 µM); ED50 (Mus musculus [9]): 2.2 mg/kg; MIC (Staphylococcus aureus [2]): 1 µg/mL (≈ 2.97 µM); MIC [3]: 0.25 µg/mL (≈ 0.743 µM); MIC (Streptococcus pneumoniae): 0.25 µg/mL (≈ 0.743 µM); MIC (Staphylococcus aureus [4]): 1 µg/mL (≈ 2.97 µM)

For `CC(=O)NC[C@H]1CN(c2ccc(-c3nnc(CC#N)s3)c(F)c2)C(=O)O1`, which MIC (Enterococcus faecalis) is on record?
Its MIC is 1 µg/mL (≈ 2.66 µM).

And the MIC (Haemophilus influenzae)?
Its MIC is 4 µg/mL (≈ 10.7 µM).

And the MIC (Moraxella catarrhalis)?
Its MIC is 4 µg/mL (≈ 10.7 µM).

What about the ED50 (Mus musculus [10]) of the same compound?
Its ED50 is greater than 20 mg/kg.

What about the MIC (Staphylococcus aureus [2]) of the same compound?
Its MIC is 1 µg/mL (≈ 2.66 µM).

What about the MIC [3] of the same compound?
The MIC was 0.25 µg/mL (≈ 0.666 µM).

What about the MIC (Streptococcus pneumoniae) of the same compound?
Its MIC is 0.25 µg/mL (≈ 0.666 µM).

What about the MIC (Staphylococcus aureus [4]) of the same compound?
The MIC was 2 µg/mL (≈ 5.33 µM).

What does the source list for `CC(=O)CCc1nnc(-c2ccc(N3C[C@H](CNC(C)=O)OC3=O)cc2F)s1`?
MIC (Enterococcus faecalis): 0.5 µg/mL (≈ 1.23 µM); MIC (Haemophilus influenzae): 4 µg/mL (≈ 9.84 µM); MIC (Moraxella catarrhalis): 4 µg/mL (≈ 9.84 µM); MIC (Staphylococcus aureus [2]): 1 µg/mL (≈ 2.46 µM); MIC [3]: 0.25 µg/mL (≈ 0.615 µM); MIC (Streptococcus pneumoniae): < 0.125 µg/mL; MIC (Staphylococcus aureus [4]): 1 µg/mL (≈ 2.46 µM); ED50 (Mus musculus [11]): 7.6 mg/kg

For `CCc1nnc(-c2ccc(N3C[C@H](CNC(C)=O)OC3=O)cc2F)s1`, which MIC (Enterococcus faecalis) is on record?
Its MIC is 0.5 µg/mL (≈ 1.37 µM).

And the MIC (Haemophilus influenzae)?
Its MIC is 4 µg/mL (≈ 11 µM).

What about the MIC (Moraxella catarrhalis) of the same compound?
The MIC was 2 µg/mL (≈ 5.49 µM).

And the ED50 (Mus musculus [12])?
The ED50 was 9.2 mg/kg.

What about the MIC (Staphylococcus aureus [2]) of the same compound?
The MIC was 0.5 µg/mL (≈ 1.37 µM).

What about the MIC [3] of the same compound?
The MIC was 0.25 µg/mL (≈ 0.686 µM).

And the MIC (Streptococcus pneumoniae)?
The MIC was 0.25 µg/mL (≈ 0.686 µM).

What about the MIC (Staphylococcus aureus [4]) of the same compound?
Its MIC is 1 µg/mL (≈ 2.74 µM).

Which MIC (Enterococcus faecalis) does the source give for `CC(=O)NC[C@H]1CN(c2ccc(-c3nnc(C[S+](C)[O-])s3)c(F)c2)C(=O)O1` (stereo not given in full) here?
Its MIC is 4 µg/mL (≈ 9.7 µM).

What about the MIC (Haemophilus influenzae) of the same compound?
Its MIC is 8 µg/mL (≈ 19.4 µM).

And the MIC (Moraxella catarrhalis)?
Its MIC is 8 µg/mL (≈ 19.4 µM).

What about the MIC (Staphylococcus aureus [2]) of the same compound?
The MIC was 8 µg/mL (≈ 19.4 µM).

What about the MIC [3] of the same compound?
The MIC was 0.5 µg/mL (≈ 1.21 µM).

What about the MIC (Streptococcus pneumoniae) of the same compound?
Its MIC is 0.25 µg/mL (≈ 0.606 µM).

What about the MIC (Staphylococcus aureus [4]) of the same compound?
Its MIC is 8 µg/mL (≈ 19.4 µM).

What does the source list for `CC(=O)NC[C@H]1CN(c2ccc(-c3nnc(C(N)=O)s3)c(F)c2)C(=O)O1`?
MIC (Enterococcus faecalis): 1 µg/mL (≈ 2.64 µM); MIC (Haemophilus influenzae): 16 µg/mL (≈ 42.2 µM); MIC (Moraxella catarrhalis): 4 µg/mL (≈ 10.5 µM); ED50 (Mus musculus [13]): 12.4 mg/kg; MIC (Staphylococcus aureus [2]): 0.5 µg/mL (≈ 1.32 µM); MIC [3]: 0.25 µg/mL (≈ 0.659 µM); MIC (Streptococcus pneumoniae): 0.25 µg/mL (≈ 0.659 µM); MIC (Staphylococcus aureus [4]): 0.5 µg/mL (≈ 1.32 µM)

What does the source list for `CC(=O)NC[C@H]1CN(c2ccc(N3CCOCC3)c(F)c2)C(=O)O1` [LINEZOLID]?
MIC (Haemophilus influenzae): 16 µg/mL (≈ 47.4 µM); MIC (Moraxella catarrhalis): 8 µg/mL (≈ 23.7 µM); MIC [14]: 1 µg/mL (≈ 2.96 µM)
